Results as given in ChEMBL document CHEMBL1201862, “PubChem BioAssay data set” (2004).
Values joined by “and” are separate entries in the source; they are usually repeats but may differ in a detail not shown here. Equal values may be shown once. Active and inactive are the calls of the source.

Columns and labels:
[1] = NIH-3T3 fibroblast cytotoxicity, dose response, cytotoxicity control, cell-based, fluorescence, Alamar Blue, secondary assay (AID 2327); type: functional;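 note: NIH-3T3 mouse fibroblasts cultured with fluconazole at 8 µg/mL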
[2] = system: Streptococcus sp. 'group A'; test: growth inhibition of control SK(-) GAS strain, dose response, counter-screen for streptokinase expression inhibitor project, luminescence, kanamycin, BacTiterGlo, confirmation (AID 1900); type: functional, organism-based
Streptokinase A = target: T1, Streptokinase A (Streptococcus pyogenes serotype M1, UniProt P10520); test: S. pyogenes streptokinase expression inhibitors, potency, dose response, plasminogen activation absorbance, OD405 (AID 1914); type: functional, Streptococcus pyogenes M1 GAS;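 note: secreted streptokinase activity via plasminogen activation per viability signal from cell pellet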
T1 sequence (P10520 whole entry): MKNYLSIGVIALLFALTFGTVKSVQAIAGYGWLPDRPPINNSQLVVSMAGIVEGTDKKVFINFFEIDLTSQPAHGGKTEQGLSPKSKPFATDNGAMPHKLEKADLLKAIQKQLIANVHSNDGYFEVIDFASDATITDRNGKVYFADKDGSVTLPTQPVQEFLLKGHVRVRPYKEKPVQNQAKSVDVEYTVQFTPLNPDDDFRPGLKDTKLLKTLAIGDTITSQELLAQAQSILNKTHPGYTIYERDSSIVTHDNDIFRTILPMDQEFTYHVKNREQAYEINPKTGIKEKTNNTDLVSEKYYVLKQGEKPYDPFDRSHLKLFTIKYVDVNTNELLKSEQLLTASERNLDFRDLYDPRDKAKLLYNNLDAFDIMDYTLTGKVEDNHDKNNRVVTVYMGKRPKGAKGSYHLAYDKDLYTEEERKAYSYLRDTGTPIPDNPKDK

[3] = C. albicans growth with fluconazole, confirmation, fluorescence, retest (AID 2467); type: functional, cell-based
[4] = target: T2, Serine/threonine-protein phosphatase (Candida dubliniensis (strain CD36 / CBS 7987 / NCPF 3949 / NRRLY-17841) (Yeast), UniProt B9W6M3); test: calcineurin pathway inhibitors in yeast reporter, dose response, S. cerevisiae, CDRE-lacZ, luminescence, secondary (AID 2388); type: functional, cell-based;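 note: yeast reporter cells carrying a calcineurin-responsive lacZ construct stimulated with calcium chloride; luminescent beta-galactosidase reporter signal in whole cells rather than isolated phosphatase activity; potency for inhibition where a drop in reporter signal means calcineurin blockade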
T2 sequence (B9W6M3 whole entry): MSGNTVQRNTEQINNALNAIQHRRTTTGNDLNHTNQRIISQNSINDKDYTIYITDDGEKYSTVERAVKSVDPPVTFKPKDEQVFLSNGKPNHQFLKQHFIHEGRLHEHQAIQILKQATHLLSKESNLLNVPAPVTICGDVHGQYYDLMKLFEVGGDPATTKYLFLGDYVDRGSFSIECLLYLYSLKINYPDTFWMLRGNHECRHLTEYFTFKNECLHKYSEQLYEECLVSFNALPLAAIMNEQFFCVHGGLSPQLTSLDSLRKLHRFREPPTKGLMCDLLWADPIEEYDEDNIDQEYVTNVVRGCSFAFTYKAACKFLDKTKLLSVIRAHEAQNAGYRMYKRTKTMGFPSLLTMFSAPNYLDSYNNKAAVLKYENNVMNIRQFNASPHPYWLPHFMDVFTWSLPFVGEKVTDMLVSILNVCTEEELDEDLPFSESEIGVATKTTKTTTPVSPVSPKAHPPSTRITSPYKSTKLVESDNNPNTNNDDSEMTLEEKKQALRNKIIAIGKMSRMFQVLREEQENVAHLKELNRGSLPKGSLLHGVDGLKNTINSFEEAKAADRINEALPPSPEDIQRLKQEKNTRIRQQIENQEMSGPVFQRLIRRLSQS

Streptococcus = test: Group A Streptococcus viability loss, dose response, counter-screen for streptokinase expression inhibitor project, luminescence, BacTiterGlo (AID 1915); type: functional, organism-based;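 note: potency for reduction of bacterial viability or growth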
Cytochrome P450 2C19 = Cytochrome P450 2C19 (Homo sapiens, UniProt P33261); test: Cytochrome panel assay with activity outcomes. Panel member name: p450-cyp2c19 Compounds with AC50 equal or less than 10 uM are considered active; type: functional; conditions: read-out: AC50
[5] = target: Heat shock protein HSP 90-alpha (Homo sapiens, UniProt P07900); type: functional, organism-based
[6] = target: ATP-dependent molecular chaperone HSP82 (Candida albicans (strain WO-1) (Yeast), UniProt C4YTQ8); test: loss of DOC-induced GRE-beta-galactosidase reporter signal, dose response, Hsp90 inhibitor project, S. cerevisiae, luminescence (AID 2400); type: functional, cell-based;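 note: beta-galactosidase luminescence from glucocorticoid response element reporter as proxy for Hsp90 function; inhibitor potency where signal loss means Hsp90 inhibition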
[7] = target: Beta-2 adrenergic receptor (Homo sapiens, UniProt P07550); test: beta2AR agonists driving receptor internalization, dose response, cell-based, FAP fluorogen, flow cytometry, cherry pick 1 (AID 588763); type: functional
[8] = HeLa 2N DNA content increase, dose response, cell-based, IC50 (AID 1117349); type: functional
[9] = half-maximal inhibitory concentration for glucagon-like peptide-1 release, STC-1 cell line, dose-response (AID 1117345); type: functional, cell-based
[10] = HeLa 4N DNA content increase, dose response, cell-based, IC50 (AID 1117351); type: functional
[11] = Glucagon-like peptide 1 release potency, NCI-H716 cell line, dose-response, half-maximal inhibitory concentration (AID 1117344); type: functional, cell-based
Cytochrome P450 2D6 = Cytochrome P450 2D6 (Homo sapiens, UniProt P10635);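 note: CYP2D6 member of a cytochrome P450 panel assay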
Cytochrome P450 2C9 = Cytochrome P450 2C9 (Homo sapiens, UniProt P11712)
[12] = target: Peroxisome proliferator-activated receptor gamma/Nuclear receptor corepressor 2 (Homo sapiens, UniProt P37231+Q9Y618); test: Counterscreen for NR2E3 inverse agonists: TR-FRET-based biochemical high throughput dose response assay to identify inverse agonists of the interaction between peroxisome proliferator-activated receptor gamma (PPARg) and nuclear receptor co-repressor 2 (NCOR2).; type: functional
[13] = target: Photoreceptor-specific nuclear receptor (Homo sapiens, UniProt Q9Y5X4); test: NR2E3 inverse agonists, dose response, biochemical, TR-FRET (AID 463256); type: functional
[14] = P. falciparum Dd2 growth inhibitors, dose response, SYBR Green, dry powder samples, set 9 (AID 1159568); type: functional, cell-based
[15] = P. falciparum 3D7-ScDHODH growth inhibitors, dose response, SYBR Green, dry powder samples (AID 1159570); type: functional, cell-based;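 note: parasite growth measured after 72 hours of compound exposure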
[16] = HepG2 cell cytotoxicity, dose response, cytotoxicity control, plate reader, dry powder samples (AID 1159569); type: functional, cell-based;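 note: inhibitor potency with signal falling toward the positive control level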
[17] = P. falciparum Dd2 growth inhibitors, dose response, SYBR Green, cherry-picked samples (AID 1159567); type: functional, cell-based
[18] = P. falciparum Dd2 growth inhibitors, dose response, SYBR Green, dry powder samples (AID 1159566); type: functional, cell-based;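 note: potency for growth inhibition with lower SYBR green DNA signal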
[19] = HepG2 cell cytotoxicity, dose response, cytotoxicity control, cherry-picked samples (AID 1159577); type: functional, cell-based
[20] = Plasmodium falciparum Dd2 Sybr green parasite growth Measured in Cell-Based and Microorganism Combination System Using Plate Reader - 2153-01_Inhibitor_Dose_DryPowder_Activity_Set3.; type: functional
[21] = P. falciparum ATP4 D1247Y mutant growth inhibitors, dose response, NITD609-resistant line, SYBR Green, dry powder (AID 1159571); type: functional, cell-based;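 note: parasites synchronized at ring stage by sorbitol before testing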
[22] = RKO cell viability reduction, dose response, CellTiter-Glo luminescence (AID 1117322); type: functional
[23] = cytotoxicity toward HCT116 cells – cell-based, CellTiter-Glo luminescence, IC50, dose response (AID 1117332); type: functional; conditions: HCT-116
[24] = SNU-C1 cell viability reduction, dose response, CellTiter-Glo luminescence (AID 1117323); type: functional, cell-based
[25] = cytotoxicity toward Colo320 cells – cell-based, CellTiter-Glo luminescence, IC50, dose response (AID 1117334); type: functional; conditions: COLO 320
[26] = cytotoxicity toward HT-29 cells – cell-based, CellTiter-Glo luminescence, IC50, dose response (AID 1117330); type: functional
[27] = CellTiter-Glo luminescent dose response of DLD-1 viability loss (AID 1117352); type: functional
[28] = HCT116 cell viability decrease, GSK3B pretreatment – CellTiter-Glo, IC50, dose response (AID 1117339); type: functional; conditions: HCT-116
[29] = A549 cell cytotoxicity, dose response, cytotoxicity control, CellTiter-Glo luminescence, dry powder, set 5 (AID 743158); type: functional, cell-based
[30] = HEK293 cell cytotoxicity, dose response, cytotoxicity control, ATP luminescence, dry powder, set 3 (AID 743131); type: functional, cell-based
[31] = HepG2 cell cytotoxicity, dose response, cytotoxicity control, ATP luminescence, dry powder, set 2 (AID 743129); type: functional, cell-based
[32] = A549 cell cytotoxicity, dose response, cytotoxicity control, 24 h, CellTiter-Glo luminescence, cherry-picks (AID 1053115); type: functional, cell-based; conditions: A549, 24 h
[33] = A549 cell cytotoxicity, dose response, CellTiter-Glo luminescence, dry powder, set 17 (AID 1117284); type: functional, cell-based
[34] = inhibitors of firefly luciferase expression or activity, dose response, H4 neuroglioma cells, luminescence (AID 1990); type: functional, cell-based
[35] = Luminescence Cell-Based Dose Response HTS to Identify Inhibitors of 5'UTR Stem-Loop Driven Prion Protein mRNA Translation in H4 Neuroglioblastoma Cells. [Related pubchem assays: 1827 (Project Summary), 1813 (Primary HTS)]; type: functional
[36] = inhibitors of SNCA 5'UTR-driven reporter translation, confirmation, H4 neuroglioma cells, luminescence (AID 1988); type: functional, cell-based
[37] = Vero cell cytotoxicity, dose response, cytotoxicity control for Vif-APOBEC3G degradation inhibitor project, Vero cells (AID 1117358); type: functional; conditions: Human immunodeficiency virus 1, Vero
[38] = target: Mitogen-activated protein kinase 10 (Homo sapiens, UniProt P53779); test: Dose response biochemical screening assay for inhibitors of c-Jun N-Terminal Kinase 3 (JNK3). [Related pubchem assays: 746 ]
fMet-Leu-Phe receptor = target: T3, fMet-Leu-Phe receptor (Homo sapiens, UniProt P21462); test: FPR ligands, dose response (AID 519); type: functional
T3 sequence (P21462 whole entry): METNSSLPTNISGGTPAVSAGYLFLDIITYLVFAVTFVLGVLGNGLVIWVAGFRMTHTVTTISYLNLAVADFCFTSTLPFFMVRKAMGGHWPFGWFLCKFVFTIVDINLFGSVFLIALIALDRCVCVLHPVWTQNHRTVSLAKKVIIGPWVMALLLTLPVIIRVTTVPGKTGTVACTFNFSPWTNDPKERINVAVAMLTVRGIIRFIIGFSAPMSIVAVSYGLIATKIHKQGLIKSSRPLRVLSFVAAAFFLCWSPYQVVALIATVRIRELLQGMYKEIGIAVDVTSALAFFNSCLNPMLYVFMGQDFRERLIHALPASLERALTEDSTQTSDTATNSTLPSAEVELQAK

Sequence of Cytochrome P450 2C19 (P33261 whole entry): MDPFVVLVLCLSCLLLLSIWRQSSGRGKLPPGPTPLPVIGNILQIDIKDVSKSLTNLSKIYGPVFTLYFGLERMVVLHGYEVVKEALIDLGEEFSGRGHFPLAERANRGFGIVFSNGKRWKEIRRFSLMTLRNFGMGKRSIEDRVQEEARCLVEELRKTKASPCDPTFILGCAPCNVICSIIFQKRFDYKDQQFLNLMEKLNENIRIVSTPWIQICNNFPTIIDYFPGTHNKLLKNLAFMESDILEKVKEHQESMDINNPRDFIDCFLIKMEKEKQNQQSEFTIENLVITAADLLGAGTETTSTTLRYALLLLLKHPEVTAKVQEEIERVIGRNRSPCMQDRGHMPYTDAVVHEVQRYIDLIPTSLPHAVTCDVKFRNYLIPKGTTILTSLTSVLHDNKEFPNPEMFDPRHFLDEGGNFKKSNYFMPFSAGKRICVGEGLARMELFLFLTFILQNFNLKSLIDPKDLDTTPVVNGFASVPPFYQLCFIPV
Sequence of Cytochrome P450 2C9 (P11712 whole entry): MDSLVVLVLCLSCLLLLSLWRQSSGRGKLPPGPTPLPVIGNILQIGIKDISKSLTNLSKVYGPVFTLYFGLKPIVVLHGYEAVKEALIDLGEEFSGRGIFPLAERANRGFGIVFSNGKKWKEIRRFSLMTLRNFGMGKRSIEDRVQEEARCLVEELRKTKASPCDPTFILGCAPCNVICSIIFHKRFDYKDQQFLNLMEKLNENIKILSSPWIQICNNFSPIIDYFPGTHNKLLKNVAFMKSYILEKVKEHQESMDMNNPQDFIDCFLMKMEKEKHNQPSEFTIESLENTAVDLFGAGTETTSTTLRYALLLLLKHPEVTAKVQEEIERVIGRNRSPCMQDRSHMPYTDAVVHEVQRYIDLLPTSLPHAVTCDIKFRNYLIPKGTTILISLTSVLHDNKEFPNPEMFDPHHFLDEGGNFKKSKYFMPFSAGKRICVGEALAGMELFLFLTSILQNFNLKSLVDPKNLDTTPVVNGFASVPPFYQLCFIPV
Sequence of Cytochrome P450 2D6 (P10635 whole entry): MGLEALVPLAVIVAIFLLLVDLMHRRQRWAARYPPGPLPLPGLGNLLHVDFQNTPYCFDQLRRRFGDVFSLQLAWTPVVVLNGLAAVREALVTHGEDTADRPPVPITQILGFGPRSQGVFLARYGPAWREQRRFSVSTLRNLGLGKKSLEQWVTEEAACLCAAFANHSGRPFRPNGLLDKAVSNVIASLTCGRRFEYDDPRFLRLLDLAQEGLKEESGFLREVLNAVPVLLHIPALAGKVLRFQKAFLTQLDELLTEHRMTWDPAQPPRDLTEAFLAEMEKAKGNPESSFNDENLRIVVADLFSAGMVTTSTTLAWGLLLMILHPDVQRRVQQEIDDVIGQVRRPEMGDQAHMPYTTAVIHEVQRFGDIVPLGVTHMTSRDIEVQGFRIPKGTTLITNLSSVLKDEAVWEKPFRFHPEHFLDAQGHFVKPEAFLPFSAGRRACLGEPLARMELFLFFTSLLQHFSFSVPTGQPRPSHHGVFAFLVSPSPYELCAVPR
Sequence of Mitogen-activated protein kinase 10 (P53779 whole entry): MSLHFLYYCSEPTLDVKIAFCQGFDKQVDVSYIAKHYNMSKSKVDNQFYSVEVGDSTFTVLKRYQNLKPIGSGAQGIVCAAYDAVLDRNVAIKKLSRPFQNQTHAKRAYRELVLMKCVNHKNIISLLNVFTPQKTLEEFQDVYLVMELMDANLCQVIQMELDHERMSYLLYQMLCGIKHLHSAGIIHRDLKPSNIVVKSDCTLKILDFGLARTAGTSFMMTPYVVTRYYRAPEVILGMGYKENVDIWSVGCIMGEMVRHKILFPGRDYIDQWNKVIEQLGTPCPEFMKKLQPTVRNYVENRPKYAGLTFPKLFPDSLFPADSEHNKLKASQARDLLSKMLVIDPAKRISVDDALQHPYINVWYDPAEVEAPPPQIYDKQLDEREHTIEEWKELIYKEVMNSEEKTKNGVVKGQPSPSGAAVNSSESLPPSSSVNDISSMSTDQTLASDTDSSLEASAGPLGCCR
Sequence of Beta-2 adrenergic receptor (P07550 whole entry): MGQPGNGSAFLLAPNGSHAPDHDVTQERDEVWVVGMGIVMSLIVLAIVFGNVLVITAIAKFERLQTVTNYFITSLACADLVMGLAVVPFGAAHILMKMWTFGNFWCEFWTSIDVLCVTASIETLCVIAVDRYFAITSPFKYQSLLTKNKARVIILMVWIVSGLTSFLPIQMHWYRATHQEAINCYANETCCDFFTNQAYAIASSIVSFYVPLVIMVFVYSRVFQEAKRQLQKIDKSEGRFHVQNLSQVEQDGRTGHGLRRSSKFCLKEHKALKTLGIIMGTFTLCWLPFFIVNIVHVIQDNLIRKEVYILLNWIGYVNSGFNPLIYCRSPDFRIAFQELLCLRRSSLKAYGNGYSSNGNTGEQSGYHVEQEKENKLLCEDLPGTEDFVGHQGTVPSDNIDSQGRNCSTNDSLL
Sequence of Photoreceptor-specific nuclear receptor (Q9Y5X4 whole entry): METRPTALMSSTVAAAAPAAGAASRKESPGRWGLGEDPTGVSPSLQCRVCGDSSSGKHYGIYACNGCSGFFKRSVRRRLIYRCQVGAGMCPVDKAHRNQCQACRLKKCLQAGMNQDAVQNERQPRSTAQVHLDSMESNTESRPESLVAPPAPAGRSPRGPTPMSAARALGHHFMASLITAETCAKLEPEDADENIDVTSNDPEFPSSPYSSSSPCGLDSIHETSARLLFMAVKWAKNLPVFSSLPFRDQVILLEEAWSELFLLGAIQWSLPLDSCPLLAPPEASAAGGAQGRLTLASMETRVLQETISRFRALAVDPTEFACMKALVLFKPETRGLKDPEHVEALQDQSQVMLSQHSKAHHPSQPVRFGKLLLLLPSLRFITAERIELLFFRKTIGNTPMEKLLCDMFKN
Sequence of ATP-dependent molecular chaperone HSP82 (C4YTQ8 whole entry): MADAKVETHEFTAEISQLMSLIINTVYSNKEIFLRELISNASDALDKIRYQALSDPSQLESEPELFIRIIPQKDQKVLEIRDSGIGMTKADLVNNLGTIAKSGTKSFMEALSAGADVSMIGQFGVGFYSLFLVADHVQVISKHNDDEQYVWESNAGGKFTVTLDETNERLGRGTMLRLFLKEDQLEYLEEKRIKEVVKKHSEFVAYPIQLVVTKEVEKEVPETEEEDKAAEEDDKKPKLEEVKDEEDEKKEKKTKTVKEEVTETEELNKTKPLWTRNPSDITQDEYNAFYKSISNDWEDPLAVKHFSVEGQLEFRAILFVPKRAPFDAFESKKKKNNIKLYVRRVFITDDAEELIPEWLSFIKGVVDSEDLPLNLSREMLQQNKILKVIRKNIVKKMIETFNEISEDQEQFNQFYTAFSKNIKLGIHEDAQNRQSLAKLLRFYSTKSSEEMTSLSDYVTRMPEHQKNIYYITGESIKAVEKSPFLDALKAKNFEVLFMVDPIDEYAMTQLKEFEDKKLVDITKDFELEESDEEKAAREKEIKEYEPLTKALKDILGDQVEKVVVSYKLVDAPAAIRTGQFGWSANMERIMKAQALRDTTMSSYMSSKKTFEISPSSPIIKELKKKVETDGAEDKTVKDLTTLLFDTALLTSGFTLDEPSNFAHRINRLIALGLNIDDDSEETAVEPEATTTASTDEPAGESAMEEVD

Clc1ccccc1C(c1ccccc1)(c1ccccc1)n1ccnc1 [CLOTRIMAZOLE]
EC50 [1]: 11.6 µM (active)
EC50 [2]: 4.3 µM (active)
EC50 (Streptokinase A): > 150 µM (not active)
EC50 [3]: 0.628 µM (active)
EC50 [4]: > 180 µM (inactive)
EC50 (Streptococcus): 7.15 µM (active)
AC50 (Cytochrome P450 2C19): 10 µM (active) and 7.94 µM (inconclusive)
AC50 [5]: < 0.195 µM (active)
EC50 [6]: > 150 µM (inactive)
EC50 [7]: 4.69 µM (active)
IC50 [8]: > 10 µM (inactive)
IC50 [9]: > 40 µM (inactive)
IC50 [10]: > 10 µM (inactive)
IC50 [11]: 20.2 µM (inactive)
AC50 (Cytochrome P450 2D6): 10 µM (active) and 39.8 µM (inconclusive)
AC50 (Cytochrome P450 2C9): 1 µM (active) and 316 nM (active)

COc1cc2ccccc2cc1C(=O)Nc1ccc2oc(=O)ccc2c1
IC50 [12]: 2.86 µM (active)
IC50 [13]: 2.28 µM (active)

C[C@@H]1CCCCO[C@H](CN(C)S(=O)(=O)c2ccc(F)cc2)[C@@H](C)CN([C@H](C)CO)C(=O)c2cc(N(C)C)ccc2O1
AC50 [14]: 11.4 µM (active)

CO[C@@H]1CN(C)C(=O)c2ccc(NC(=O)Nc3ccccc3Cl)cc2OC[C@@H](C)N(C)C[C@H]1C
AC50 [15]: 4.25 µM (active)
AC50 [16]: 62.2 µM (active)
AC50 [17]: 0.666 µM (active)
AC50 [18]: 0.102 µM (active)
AC50 [19]: > 39 µM (inactive)
AC50 [20]: 0.446 µM (active)
AC50 [21]: 0.512 µM (active)

Cc1ccc2c(Br)cc(Br)c(O)c2n1 [BROQUINALDOL]
IC50 [22]: 0.311 µM (active)
IC50 [23]: 1.16 µM (active)
IC50 [24]: 12.8 µM (inactive)
IC50 [25]: 0.001 µM (active)
IC50 [26]: > 6.67 µM (inactive)
IC50 [27]: 4.77 µM (active)
IC50 [28]: 1.03 µM (active)

CCOC(=O)c1c(-c2ccc(-c3ccccc3)cc2)csc1NC(=O)CNCCN(C)C
AC50 [29]: 17.1 µM (active)
AC50 [30]: 13.3 µM (active)
AC50 [31]: 16.5 µM (active)

C[C@H](CO)N1C[C@H](C)[C@@H](CN(C)Cc2ccc(-c3ccccc3)cc2)Oc2cc(C#C[C@@H](C)O)ccc2S1(=O)=O
AC50 [32]: 52.6 µM (active)
AC50 [33]: 42.5 µM (active)

CC(C)c1ccc(-c2[nH]c(N3CCCC3)nc3nnc(N)c2-3)cc1
EC50 [34]: > 120 µM (not active)
EC50 [2]: 103 µM (active)
EC50 [35]: > 120 µM (not active)
EC50 [36]: 12.9 µM (active)
EC50 (Streptokinase A): > 150 µM (not active)
EC50 (Streptococcus): > 150 µM (not active)
CC50 [37]: > 40 µM (active)

CCCOc1ccc(C2C(C(=O)c3ccc(C)o3)=C(O)C(=O)N2CCCn2ccnc2)cc1 (configuration not stated)
IC50 [38]: 19.7 µM (not active)
Ki (fMet-Leu-Phe receptor): 13.8 µM (active)
